For data set [1] the following is noted: mice and rats; cited from earlier work.
Data set [2] relates to domestic flies. Kind of data set: insecticidal activity, full-scale (large-scale) test in premises. The note with it: 2% solution, 2-3 dishes per 20 m²; 72 hours. In kind it is in vivo. The method, then: The full-scale tests for activity of the insecticidal composition of the invention to domestic flies in habitable and industrial premises were carried out as follows. The Petri dishes containing a 2% solution of the insecticidal composition of the invention were located according 2-3-dishes per 20 m². The composition activity was evaluated by a direct estimation of killed insects in 72 hours or by using an adhesive tape to count the number of flies on its surface prior to and after conducting the test.

Molecules are shown by their SMILES.

The source of these data is EP0414894A1 (priority 1989, dated 1990).

For `COP(=O)(OC)C(O)C(Cl)(Cl)Cl` (centres unmarked) [0,0-dimethyl/1-hydroxy-2,2,2,-trichloroethyl/-phosphonate, reference compound], the LD₅₀ in data set [1] was 225 to 1200 mg/kg. The “Death of flies, % Tests in large-scale” value in data set [2] stood at 88.0%.
